Numbers after ± are expanded uncertainties.
Legend:
[1] = 298.15 K; 101.33 kPa; Liquid
[2] = refractive index (Na D-line) (dimensionless); conditions: 293.15 K; 101.33 kPa; Liquid; Standard Abbe refractometry

SMILES | mass density [1] [kg/m3] | refractive index [2]
C=Cc1ccccc1 [styrene] | 901.51 ± 0.54 | 1.546 ± 0.0005
C[S+](C)[O-] [dimethyl sulfoxide] | 1095.62 ± 0.32 | 1.4785 ± 0.0004
Cc1ccccc1 [toluene] | 862.14 ± 0.94 | 1.4965 ± 0.0006

More lines, now with the values ahead:

mass density [1] [kg/m3] | refractive index [2] | SMILES
873.56 ± 0.35 | 1.5009 ± 0.0004 | c1ccccc1 [benzene]
862.44 ± 0.55 | 1.4962 ± 0.0005 | CCc1ccccc1 [ethylbenzene]

From the NIST ThermoML archive (doi:10.1016/j.jct.2004.07.024)
